Source: PubChem BioAssay (NCI)
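These data come from cells grown in 96-well plates and exposed to compound for 48 hours at five concentrations. TGI denotes the concentration required for complete inhibition of growth.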

Experiments:
Test in all cases: NCI-60 cell line screen, 48 h
786-0 renal = tested on: 786-0 renal
A498 renal = tested on: A498 renal
A549 NSCLC = tested on: A549 NSCLC
ACHN renal = tested on: ACHN renal
CAKI-1 renal = tested on: CAKI-1 renal
CCRF-CEM leukemia = tested on: CCRF-CEM leukemia
COLO 205 colon = tested on: COLO 205 colon
DLD-1 colon = tested on: DLD-1 colon
DMS 114 small cell lung = tested on: DMS 114 small cell lung
DMS 273 small cell lung = tested on: DMS 273 small cell lung
EKVX NSCLC = tested on: EKVX NSCLC
HCC-2998 colon = tested on: HCC-2998 colon
HCT-116 colon = tested on: HCT-116 colon
HCT-15 colon = tested on: HCT-15 colon
HL-60(TB) leukemia = tested on: HL-60(TB) leukemia
HOP-18 NSCLC = tested on: HOP-18 NSCLC
HOP-62 NSCLC = tested on: HOP-62 NSCLC
HOP-92 NSCLC = tested on: HOP-92 NSCLC
HT29 colon = tested on: HT29 colon
IGROV1 ovarian = tested on: IGROV1 ovarian
K-562 leukemia = tested on: K-562 leukemia
KM12 colon = tested on: KM12 colon
KM20L2 colon = tested on: KM20L2 colon
LXFL 529 NSCLC = tested on: LXFL 529 NSCLC
M14 melanoma = tested on: M14 melanoma
M19-MEL melanoma = tested on: M19-MEL melanoma
MALME-3M melanoma = tested on: MALME-3M melanoma
MOLT-4 leukemia = tested on: MOLT-4 leukemia
NCI-H226 lung = tested on: NCI-H226 lung
NCI-H23 lung = tested on: NCI-H23 lung
NCI-H460 lung = tested on: NCI-H460 lung
NCI-H522 lung = tested on: NCI-H522 lung
OVCAR-3 ovarian = tested on: OVCAR-3 ovarian
OVCAR-4 ovarian = tested on: OVCAR-4 ovarian
OVCAR-5 ovarian = tested on: OVCAR-5 ovarian
OVCAR-8 ovarian = tested on: OVCAR-8 ovarian
RPMI-8226 leukemia = tested on: RPMI-8226 leukemia
RXF-631 renal = tested on: RXF-631 renal
SF-268 CNS = tested on: SF-268 CNS
SF-295 CNS = tested on: SF-295 CNS
SF-539 CNS = tested on: SF-539 CNS
SK-MEL-2 melanoma = tested on: SK-MEL-2 melanoma
SK-MEL-28 melanoma = tested on: SK-MEL-28 melanoma
SK-MEL-5 melanoma = tested on: SK-MEL-5 melanoma
SK-OV-3 ovarian = tested on: SK-OV-3 ovarian
SN12C renal = tested on: SN12C renal
SNB-19 CNS = tested on: SNB-19 CNS
SNB-75 CNS = tested on: SNB-75 CNS
SNB-78 CNS = tested on: SNB-78 CNS
SW-620 colon = tested on: SW-620 colon
TK-10 renal = tested on: TK-10 renal
U251 CNS = tested on: U251 CNS
UACC-257 melanoma = tested on: UACC-257 melanoma
UACC-62 melanoma = tested on: UACC-62 melanoma
UO-31 renal = tested on: UO-31 renal
XF 498 CNS = tested on: XF 498 CNS
LOX IMVI melanoma = tested on: LOX IMVI melanoma
SR leukemia = tested on: SR leukemia

With `c1ccc2c(NCCCCCCCCNc3cccc4ccccc34)cccc2c1` the TGI (786-0 renal) was 57.1 µM, the TGI (A498 renal) was over 100 µM and the TGI (A549 NSCLC) was over 100 µM. It also gave a TGI (ACHN renal) of 80.6 µM, a TGI (CAKI-1 renal) of 35.8 µM and a TGI (CCRF-CEM leukemia) of 42.5 µM. For the same compound, the TGI (COLO 205 colon) was 35.4 µM, the TGI (DLD-1 colon) was over 100 µM and the TGI (DMS 114 small cell lung) was 68.2 µM. For the same compound, the TGI (DMS 273 small cell lung) was 80.6 µM, the TGI (EKVX NSCLC) was over 10 µM and the TGI (HCC-2998 colon) was over 100 µM. It also gave a TGI (HCT-116 colon) of 40 µM, a TGI (HCT-15 colon) of 84.7 µM and a TGI (HL-60(TB) leukemia) of 50.7 µM. The TGI (HOP-18 NSCLC) was 58.6 µM, the TGI (HOP-62 NSCLC) was over 100 µM and the TGI (HOP-92 NSCLC) was 35.7 µM. It also gave a TGI (HT29 colon) of over 100 µM, a TGI (IGROV1 ovarian) of over 100 µM and a TGI (K-562 leukemia) of 80.9 µM. It also gave a TGI (KM12 colon) of over 100 µM, a TGI (KM20L2 colon) of over 100 µM and a TGI (LXFL 529 NSCLC) of 38.1 µM. For the same compound, the TGI (M14 melanoma) was 39.6 µM, the TGI (M19-MEL melanoma) was over 10 µM and the TGI (MALME-3M melanoma) was 46.5 µM. It also gave a TGI (MOLT-4 leukemia) of 39.9 µM, a TGI (NCI-H226 lung) of over 100 µM and a TGI (NCI-H23 lung) of 65 µM. The TGI (NCI-H460 lung) was 60.5 µM, the TGI (NCI-H522 lung) was 36 µM and the TGI (OVCAR-3 ovarian) was over 100 µM. For the same compound, the TGI (OVCAR-4 ovarian) was 67.3 µM, the TGI (OVCAR-5 ovarian) was over 100 µM and the TGI (OVCAR-8 ovarian) was 54.8 µM. The TGI (RPMI-8226 leukemia) was over 10 µM, the TGI (RXF-631 renal) was 34.5 µM and the TGI (SF-268 CNS) was over 100 µM. It also gave a TGI (SF-295 CNS) of over 100 µM, a TGI (SF-539 CNS) of 72.2 µM and a TGI (SK-MEL-2 melanoma) of over 100 µM. For the same compound, the TGI (SK-MEL-28 melanoma) was 40.3 µM, the TGI (SK-MEL-5 melanoma) was over 10 µM and the TGI (SK-OV-3 ovarian) was over 100 µM. It also gave a TGI (SN12C renal) of over 100 µM, a TGI (SNB-19 CNS) of over 100 µM and a TGI (SNB-75 CNS) of 83.2 µM. It also gave a TGI (SNB-78 CNS) of over 100 µM, a TGI (SW-620 colon) of 40 µM and a TGI (TK-10 renal) of 43.6 µM. For the same compound, the TGI (U251 CNS) was over 100 µM, the TGI (UACC-257 melanoma) was 51.7 µM and the TGI (UACC-62 melanoma) was 45.9 µM. It also gave a TGI (UO-31 renal) of over 100 µM and a TGI (XF 498 CNS) of over 100 µM.

With `CC1=C(N(C)C)C(=O)c2nc3n(c2C1=O)CCC3OC(N)=O` (configuration not stated) the TGI (786-0 renal) was 31.6 µM, the TGI (A498 renal) was 26.6 µM and the TGI (A549 NSCLC) was 35.1 µM. The TGI (ACHN renal) was 30.4 µM, the TGI (CAKI-1 renal) was 33.1 µM and the TGI (CCRF-CEM leukemia) was 42.8 µM. For the same compound, the TGI (COLO 205 colon) was 33.1 µM, the TGI (DLD-1 colon) was 29.9 µM and the TGI (DMS 114 small cell lung) was 30.6 µM. The TGI (DMS 273 small cell lung) was 29.3 µM, the TGI (EKVX NSCLC) was 36 µM and the TGI (HCC-2998 colon) was 34.7 µM. It also gave a TGI (HCT-116 colon) of 28.8 µM, a TGI (HCT-15 colon) of 28.9 µM and a TGI (HL-60(TB) leukemia) of 31.6 µM. It also gave a TGI (HOP-18 NSCLC) of 32 µM, a TGI (HOP-62 NSCLC) of 31.6 µM and a TGI (HOP-92 NSCLC) of 28.2 µM. The TGI (HT29 colon) was 35.6 µM, the TGI (IGROV1 ovarian) was 30.6 µM and the TGI (K-562 leukemia) was 49.8 µM. The TGI (KM12 colon) was 31.5 µM, the TGI (KM20L2 colon) was 38.6 µM and the TGI (LOX IMVI melanoma) was 25.7 µM. The TGI (M14 melanoma) was 27.4 µM, the TGI (M19-MEL melanoma) was 3.12 µM and the TGI (MALME-3M melanoma) was 23.3 µM. The TGI (MOLT-4 leukemia) was over 100 µM, the TGI (NCI-H226 lung) was 33.7 µM and the TGI (NCI-H23 lung) was 28.5 µM. It also gave a TGI (NCI-H460 lung) of 30.4 µM, a TGI (NCI-H522 lung) of 28.8 µM and a TGI (OVCAR-3 ovarian) of 30.6 µM. The TGI (OVCAR-4 ovarian) was 34.7 µM, the TGI (OVCAR-5 ovarian) was 34 µM and the TGI (OVCAR-8 ovarian) was 34.3 µM. It also gave a TGI (RPMI-8226 leukemia) of over 100 µM, a TGI (SF-268 CNS) of 34.6 µM and a TGI (SF-295 CNS) of 28.5 µM. The TGI (SF-539 CNS) was 31.8 µM, the TGI (SK-MEL-2 melanoma) was 29.8 µM and the TGI (SK-MEL-28 melanoma) was 34.4 µM. It also gave a TGI (SK-MEL-5 melanoma) of 23.7 µM, a TGI (SK-OV-3 ovarian) of 29.5 µM and a TGI (SN12C renal) of 28.8 µM. For the same compound, the TGI (SNB-19 CNS) was 31.4 µM, the TGI (SNB-75 CNS) was 42.5 µM and the TGI (SNB-78 CNS) was 40.9 µM. It also gave a TGI (SR leukemia) of over 100 µM, a TGI (SW-620 colon) of 33.6 µM and a TGI (TK-10 renal) of 32.3 µM. It also gave a TGI (U251 CNS) of 49.9 µM, a TGI (UACC-257 melanoma) of 27.6 µM and a TGI (UACC-62 melanoma) of 18 µM. It also gave a TGI (UO-31 renal) of 31.1 µM and a TGI (XF 498 CNS) of 38.8 µM.
